Article PMC4884413, “In vivo therapeutic efficacy and pharmacokinetics of colistin sulfate in an experimental model of enterotoxigenic Escherichia coli infection in weaned pigs” (Veterinary Research, 2016)
Structures can show the parent of a compound that is named as a salt. Where two headings read alike, the source gives them in different places. Bridge positions count the residues as written; N and C are the ends. Square brackets hold non-standard residues; d marks the D form. Peptide text beside a SMILES is read from it. * marks the point of attachment. X1 = CC[C@H](C)CCCCC(=O)*; Dab = NCC[C@H](N)C(=O)O

Assays:
ETEC: F4 [1] = assay: Diarrhea score (fecal consistency 0-4) in ETEC: F4 challenged weaned pigs; assay type: in vivo; settings: after 2 days of CS administration (d2), also d3 and d4, both trials, challenged treated vs challenged untreated, p < 0.0001
From the text: For experimental infection of pigs, a nalidixic acid-resistant (Nal^r) variant of ETEC: F4 strain ECL8559 (O149: LT: STa: STb: East1: paa: hemβ: F4), kindly provided by the E. coli Laboratory as described previously, was used. The strain was passaged in a weaned pig to enhance its pathogenicity. A hemolytic, Nal^r colony isolated from the feces of this pig was confirmed to be positive for O149 and the virulence genes F4, STa, STb, LT by multiplex PCR as previously described. This strain, designated ECL8559A, was used in the experimental challenge in this study. After 1-week of acclimatization, 28-day-old pigs in the challenge groups were orally gavaged with 10^9 CFU of the ETEC: F4 strain in 5 mL of trypticase soy broth (Difco Laboratories, Inc., Detroit, MI, USA) following the administration of 10 mL of CaCO3 to neutralize gastric acid. […]
After the oral challenge, pigs were observed daily for signs of anorexia, lethargy and diarrhea. The severity of diarrhea was assessed visually by using a fecal consistency scoring (0, normal; 1, soft feces; 2, mild diarrhea; 3, semi liquid diarrhea and 4, liquid diarrhea) as described by Jamalludeen et al.. The rectal body temperature was monitored daily using a digital thermometer.
Ordinal diarrhea scores were analyzed with the Cochran-Mantel-Haenszel test at each time period.

total E. coli = assay: Fecal total E. coli shedding in weaned pigs; assay type: in vivo
Experimental: (§1) Pigs were selected based on the presence of the F4 receptor gene by PCR–RFLP as previously described at 4 days of age. Two trials of 48 pigs were conducted using different doses of CS [100 000 IU/kg (trial 1) or 50 000 IU/kg (trial 2)]. In each trial, four groups of 12 pigs were constituted: challenged treated, challenged untreated, unchallenged treated, and unchallenged untreated.
(§2) For experimental infection of pigs, a nalidixic acid-resistant (Nal^r) variant of ETEC: F4 strain ECL8559 (O149: LT: STa: STb: East1: paa: hemβ: F4), kindly provided by the E. coli Laboratory as described previously, was used. The strain was passaged in a weaned pig to enhance its pathogenicity. A hemolytic, Nal^r colony isolated from the feces of this pig was confirmed to be positive for O149 and the virulence genes F4, STa, STb, LT by multiplex PCR as previously described. This strain, designated ECL8559A, was used in the experimental challenge in this study. After 1-week of acclimatization, 28-day-old pigs in the challenge groups were orally gavaged with 10^9 CFU of the ETEC: F4 strain in 5 mL of trypticase soy broth (Difco Laboratories, Inc., Detroit, MI, USA) following the administration of 10 mL of CaCO3 to neutralize gastric acid.
(§3) Colistin sulfate (Bond & Beaulac Inc., QC, Canada) was administered by oral gavage in 5 mL of water using a polyethylene tube attached to a syringe, at a dose of 100 000 or 50 000 IU/kg in trials 1 and 2 respectively.
Fresh fecal samples were obtained from pigs using pre-weighed sterile rectal swabs (Puritan Medical Products, Guilford, Maine, USA). Bacteriological examination of fecal samples was performed 1 day before and 1, 2, 3, 5, 6, 7, 8, 10, 13, 20, 27, 36 days after oral challenge to evaluate fecal excretion of the challenge ETEC: F4 strain and total E. coli count. One millilitre of buffered peptone water solution (BPW) was added to each swab and selected dilutions were plated on MacConkey agar and 5% bovine blood agar plates containing nalidixic acid at 50 μg/mL (Sigma-Aldrich Canada Ltd., Oakville, ON, Canada) to count the total E. coli population and the hemolytic challenge ETEC: F4 strain respectively, as previously described. In parallel, 5% bovine blood agar plates containing nalidixic acid at 50 μg/mL and CS at 2 μg/mL and MacConkey agar plates containing CS at 2 μg/mL were used to enumerate the CS resistant hemolytic challenge ETEC: F4 and total E. coli population respectively. The plates were incubated aerobically for 24 h at 37 °C. Isolates recovered from media containing 2 μg/mL of colistin were considered to be putative CS-resistant, as previously described. All samples were processed on the day of collection. Rectal swabs were weighed before and after sampling of pigs for individual fecal material quantification.

[2] = intramuscular (IM), pigs, cited from earlier work
From the text: In our study, regardless of the dose, CS treatment led to a decrease of nearly 4 log cfu/g in fecal shedding of ETEC: F4 and total E. coli, but only during the treatment period. […] In our study, the effect of CS on the decrease of ETEC: F4 and total E. ...

[3] = CS plasma concentrations by HPLC-MS/MS after oral administration; assay type: in vivo, pigs; settings: both trials
Experimental: as §3
Blood samples (3 mL) were collected using potassium EDTA tubes, from the jugular vein of eight pigs in each treated group, challenged or not of the two trials, at 0.5, 12, 24 and 48 h after the last CS oral administration on day 5.
Plasma was separated by centrifugation at 3000 g for 10 min and stored at −20 °C prior to analysis. These samples were used to determine CS plasma concentrations by high performance HPLC–MS/MS, in order to determine the slope of the terminal phase (λz). The λz was calculated as the negative of the slope of the log-linear regression of the natural logarithm concentration–time curve during the terminal phase. The λz is an important parameter used to determine CS elimination half-life (T1/2), which is an index of drug persistence in the body. Bioanalyses and pharmacokinetic analyses were performed as previously described. The quantification of CS was based on the peak area ratio of the analyte with the internal standard. A calibration curve was used for determining the concentration of CS in all unknown samples by comparing the peak area ratio of the unknown samples to a set of standard samples of known concentration. […]

ETEC: F4 [4] = assay: Fecal ETEC: F4 shedding in challenged weaned pigs; assay type: in vivo
Experimental: as §1, §2, §3
Fresh fecal samples were obtained from pigs using pre-weighed sterile rectal swabs (Puritan Medical Products, Guilford, Maine, USA). Bacteriological examination of fecal samples was performed 1 day before and 1, 2, 3, 5, 6, 7, 8, 10, 13, 20, 27, 36 days after oral challenge to evaluate fecal excretion of the challenge ETEC: F4 strain and total E. coli count. […] Rectal swabs were weighed before and after sampling of pigs for individual fecal material quantification.

E. coli K99 = settings: CS 300 mg/kg of diet, 7 or 14 days, weanling pigs challenged with E. coli K99; cited from earlier work
[5] = Body weight of weaned pigs; assay type: in vivo; settings: both trials, challenged treated compared to challenged untreated pigs
Experimental: Pigs were weighed individually using an electric scale prior to inoculation and at 6, 19 and 35 days after beginning CS treatment.
Bacterial counts and CS plasma concentrations were log10 transformed prior to data analysis to normalize distributions. Total E. coli counts, ETEC: F4 counts, rectal temperature, and body weight were analyzed with repeated-measures ANOVA, with time as a within-subject factor and group as the between-subject factor. A priori contrasts were performed to compare group means at different time periods and to compare pre- and post-infection means in each treatment. For these multiple comparisons, the alpha level was adjusted downward using the Benjamini-Hochberg sequential procedure. A similar procedure was used to analyze CS plasma concentration to determine effect of ETEC: F4 oral challenge on CS intestinal absorption in pigs.

CC[C@H](C)CCCCC(=O)N[C@@H](CCN)C(=O)N[C@H](C(=O)N[C@@H](CCN)C(=O)N[C@H]1CCNC(=O)[C@H]([C@@H](C)O)NC(=O)[C@H](CCN)NC(=O)[C@H](CCN)NC(=O)[C@H](CC(C)C)NC(=O)[C@@H](CC(C)C)NC(=O)[C@H](CCN)NC1=O)[C@@H](C)O [Colistin sulfate] (X1-[Dab]T[Dab][Dab][Dab][dL]L[Dab][Dab]T; lactam 4-C)
diarrhea scores (ETEC: F4 [1]): significantly decreased
fecal total E. coli shedding (total E. coli; trial 1, 100 000 IU/kg oral twice daily 5 days, d1 to d5, challenged treated vs challenged untreated, p < 0.0001): significant reduction
fecal total E. coli shedding (total E. coli; trial 1, 100 000 IU/kg, d2 to d6, unchallenged treated vs unchallenged untreated, p < 0.0001): significant reduction
fecal total E. coli shedding (total E. coli; trial 2, 50 000 IU/kg oral twice daily 5 days, d1 to d6, challenged treated vs challenged untreated, p < 0.0007): significant reduction
fecal total E. coli shedding (total E. coli; trial 2, 50 000 IU/kg, d2 to d5, unchallenged treated vs unchallenged untreated, p < 0.0001): significant reduction
systemic bioavailability ([2]; 2.5 mg/kg bw): 95.94%
systemic bioavailability ([2]; 5 mg/kg bw): 88.45%
plasma concentrations ([3]; 48 h following the last CS administration, LLOQ 1 ng/mL of plasma): below the LLOQ
CS plasma concentrations, challenged treated compared to unchallenged treated groups ([3]; all sampling times): higher
fecal ETEC: F4 shedding (ETEC: F4 [4]; both trials (100 000 or 50 000 IU/kg oral, twice daily, 5 days), between d2 and d6, treated vs untreated challenged pigs, p < 0.0001): significant reduction
levels of ETEC: F4 in feces (ETEC: F4 [4]; both trials, most pigs, between d4 and d6): dropped below our detection limit
decrease in fecal shedding of ETEC: F4 (ETEC: F4 [4]; regardless of the dose, only during the treatment period): ~4 log cfu/g
reduction of the number of E. coli in cecal digesta (E. coli K99): 4.38 log cfu/g
reduction of the number of E. coli in ileal digesta (E. coli K99): 5.30 log cfu/g
pig weight losses [5]: did not prevent pig weight losses
